Data: patent US8895611B1, “Cytotoxic compounds for treating cancer” (King Fahd University of Petroleum and Minerals, priority 2013, dated 2014)

Tests used:
[1] = system: human gastric cancer cells (SGC-7901); assay: MTT cell proliferation / cytotoxicity assay with trypan blue dye exclusion, SGC-7901 cells; assay type: cell-based; conditions: for activity / inhibition against gastric cancer cells SGC-7901: after 24 and 72 hours of treatment, FIGS. 1A-3B
Description: (§1) In FIGS. 1A-3B, the cells were treated with a concentration of 10 μM of each compound.
(§2) The anti-proliferative effect was measured by MTT assay.
(§3) Six duplicate wells were set up for each sample, and cells untreated with a compound served as a control. Treatment was conducted at 24 and 72 hours, respectively. After incubation, 10 μL MTT (6 g/L, Sigma) was added to each well and the incubation was continued for 4 hours at 37° C. After removal of the medium, MTT stabilization solution (dimethylsulphoxide: ethanol=1:1) was added to each well, and shaken for ten minutes until all crystals were dissolved. Then, optical density was detected in a micro plate reader at 550 nm wavelength using an enzyme-linked immunosorbent assay (ELISA) reader. Each assay was performed in triplicate. Cell number and viability were determined by trypan blue dye exclusion analysis.
(§4) The cytotoxicity assay was performed with various concentrations of the synthesized gold (III) complexes on PC-3 and SGC-7901 cells.

[2] = system: prostate cancer cells (PC-3); assay: MTT cell proliferation / cytotoxicity assay with trypan blue dye exclusion, PC-3 cells; assay type: cell-based, human; conditions: for activity / inhibition against human prostate cancer cells (PC-3): after 24 and 72 hours of treatment, FIGS. 1A-3B
Description: as §1, §2, §3, §4

cis-(±)-1,2-(DACH)AuCl3 [compound 1]
activity / inhibition against gastric cancer cells SGC-7901 ([1]; 10 μM): potentially high activity | cytotoxic effect on SGC-7901 cells, compound 1 compared with compound 2 ([1]; 10 μM, one, two and three days, FIG. 7B): higher cytotoxic effect in comparison with the same concentration of compound 2 | activity / inhibition against human prostate cancer cells (PC-3) ([2]; 10 μM): potentially high activity | cytotoxic effect on PC-3 cells, compound 1 compared with compound 2 ([2]; 10 μM, one, two and three days, FIG. 7A): higher cytotoxic effect in comparison with the same concentration of compound 2 | cell proliferation of PC-3 cells compared with SGC-7901 cells ([2]; fixed 10 μM, after 72 hours, FIGS. 1A and 1B): bit higher than that of the SGC-7901 cells

trans-(±)-1,2-(DACH)AuCl3 [compound 2]
activity / inhibition against gastric cancer cells SGC-7901 ([1]; 10 μM): moderate inhibition | activity / inhibition against human prostate cancer cells (PC-3) ([2]; 10 μM): moderate inhibition

N[C@H]1CCCC[C@@H]1N.[Cl][Au]([Cl])[Cl] [compound 3, (S,S)-(+)-1,2-(DACH)AuCl3]
activity / inhibition against gastric cancer cells SGC-7901 ([1]; 10 μM): moderate inhibition | bioactivity on SGC-7901 cells, trans-(1R,2R) compared with trans-(1S,2S) isomer ([1]; conclusion from FIGS. 1A-6B): no significant difference in the bioactivity | activity / inhibition against human prostate cancer cells (PC-3) ([2]; 10 μM): moderate inhibition | bioactivity on PC-3 cells, trans-(1R,2R) compared with trans-(1S,2S) isomer ([2]; conclusion from FIGS. 1A-6B): no significant difference in the bioactivity
